In PubChem BioAssay (NCI) one finds TGI data, which are given here for 24 molecules.

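Grown in 96-well plates, cells were treated for 48 hours with each compound at five concentrations. Insufficient inhibition: endpoint recorded as highest concentration tested. TGI denotes the concentration required for complete inhibition of growth.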 Where a SMILES comes first, the peptide text is derived from it. Bridges are numbered along the chain shown (N, C = ends). [ ]: non-standard residue; d: D form. The star is where a group is joined. ξ: configuration not given here. X26 = O=C(/C=C/C=C/C=C/C=C/C=C/C(=O)*)NC1=C(O)CCC1=O; NMeA = CN[C@@H](C)C(=O)O; ξF = NC(Cc1ccccc1)C(=O)O; ξA = CC(N)C(=O)O

What all share (test): inhibition of tumour cell growth, NCI panel, 48 h
Assay [1] has as its system ACHN renal.
Assay [2] has as its system HOP-92 NSCLC.
The test system of assay [3] is KM12 colon.
For assay [4], the system named is M14 melanoma.
Assay [5] concerns MALME-3M melanoma.
Assay [6] concerns MDA-MB-231 breast.
Assay [7] has as its system NCI-H23 lung.
Assay [8] concerns NCI/ADR-RES ovarian.
In assay [9] the test system is SNB-19 CNS.
In assay [10] the test system is U251 CNS.

As to `O=C1CC(C(O)(C(F)(F)F)C(F)(F)Cl)CCC1C(O)(C(F)(F)F)C(F)(F)Cl` (stereo not given), the TGI in assay [1] was more than 10 µM; in assay [2] it was 5.09 µM; in [3], more than 10 µM; in assay [4], more than 10 µM; in assay [5], more than 10 µM; in assay [6], more than 10 µM. Moreover, the TGI in assay [7], in assay [8], in assay [9] and in assay [10] was more than 10 µM each time.
With `C[C@@H]1S[C@H](c2ccccc2F)N2Cc3ccccc3N=C12`, the TGI was more than 100 µM in assay [1]; 65 µM in [2]; more than 100 µM in assay [3]; 48.7 µM in [4]; 54.2 µM in assay [5]; more than 100 µM in assay [6]. For the same molecule, the TGI is more than 100 µM in [7], 99.3 µM in assay [8], more than 100 µM in assay [9] and more than 100 µM in assay [10].
As for `COc1cc2nc(-c3cccs3)oc(=O)c2cc1OC`, the TGI in [1], in assay [2], in [3], in assay [4], in assay [5] and in assay [6] was more than 100 µM in each case. In addition, the TGI in assay [7], in assay [8], in [9] and in assay [10] was more than 100 µM in each case.
On to `COC(=O)c1cc2c(cc1CC1Cc3cc4c(cc3C1)CCC4)CCC2`, for which the TGI in assay [1] was more than 100 µM; in assay [2] it was 98.9 µM; in assay [3], more than 100 µM; in assay [4], more than 100 µM; in assay [5] it was more than 100 µM; in [6], more than 100 µM. Besides, the TGI in [7], in [8], in assay [9] and in [10] was more than 100 µM each time.
Regarding `O=C(O)C(SC1=NNC2(C(=O)N1)c1ccccc1-c1ccccc12)SC1=NNC2(C(=O)N1)c1ccccc1-c1ccccc12`, the TGI in assay [1], in assay [2], in assay [3], in [4], in assay [5] and in [6] was more than 10 µM each time. Besides, the TGI in assay [7], in assay [8], in assay [9] and in [10] was more than 10 µM in each case.
For the molecule `C/C1=C\CC[C@@]2(C)O[C@@H]2C[C@@H](C2(C)CO2)CC/C(C)=C/CC1` (stereo not given in full), the TGI in assay [1] is 35.1 µM; in [2] it was more than 100 µM; in assay [3] it was 34.3 µM; in assay [4] it was 54.7 µM; in assay [5], 32.5 µM; in assay [6], 47.3 µM. Besides, the TGI in assay [7] was 48.8 µM; in assay [8], 46.8 µM; in [9] it was 41.3 µM; in assay [10], 29.6 µM.
As to `C[C@@H](Cl)[C@H]1CCCN(Cc2ccc(Br)cc2)C1`, the TGI in [1], in assay [2], in [3], in assay [4], in assay [5] and in assay [6] was more than 12.5 µM each time. Further, the TGI in [7], in assay [8], in assay [9] and in [10] was more than 12.5 µM each time.
Consider `N/C(=N\S(=O)(=O)c1c(C(F)(F)F)cccc1C(F)(F)F)Nc1ccc(Cl)cc1`, for which the TGI in assay [1] was 56 µM; in assay [2], 43.6 µM; in assay [3] it was more than 100 µM; in assay [4], more than 100 µM; in assay [5] it was 58.4 µM; in assay [6], 48.6 µM. Also, the TGI in assay [7] was 30.8 µM; in assay [8] it was 50.1 µM; in assay [9] it was more than 100 µM; in assay [10], 36 µM.
In the case of `CCOC(=O)C(Cl)(Cl)/S(=N\S(=O)(=O)c1ccccc1)NC(=O)c1ccccc1` (stereo not given), the TGI in assay [1], in [2], in assay [3], in [4], in assay [5] and in assay [6] was more than 100 µM throughout. Further, the TGI in assay [7], in assay [8], in [9] and in assay [10] was more than 100 µM each time.
On to `O=C(CNc1c(Cl)cccc1Cl)NC1C=Cc2ccc(S(=O)(=O)Nc3c(Cl)cccc3Cl)cc2C1=O` (stereo not given), for which the TGI in [1], in [2], in [3], in assay [4], in assay [5] and in assay [6] was more than 100 µM throughout. Moreover, the TGI in assay [7], in assay [8], in assay [9] and in [10] was more than 100 µM in each case.
Regarding `CC1CN=C(N(C(=O)Nc2ccc(F)c(Cl)c2)c2ccccc2)S1` (stereo not given), the TGI in assay [1] was 87.9 µM; in [2], 48.1 µM; in [3] it was 78.3 µM; in assay [4], 75.5 µM; in [5], 78.5 µM; in assay [6], 38.9 µM. The TGI in assay [7] is 52 µM; in assay [8], 43 µM; in assay [9], more than 100 µM; in assay [10], 50.5 µM.
Take `NNC1=N/C(=C\c2ccco2)C(Cl)=N1`: the TGI in assay [1], in [2], in assay [3], in assay [4], in assay [5] and in [6] was more than 100 µM each time. In addition, the TGI in [7], in assay [8], in assay [9] and in assay [10] was more than 100 µM throughout.
Take `COC(=O)CCc1cc(OC)c2c(c1)[C@H](C(=O)OC)[C@@H](c1ccc(O)c(OC)c1)O2`: the TGI in [1], in [2], in [3], in assay [4], in assay [5] and in assay [6] was more than 100 µM throughout. The TGI in assay [7], in assay [8], in assay [9] and in assay [10] was more than 100 µM in each case.
Take `CC(O)CCCOC(c1ccccc1)(c1ccccc1)c1ccccc1` (stereo not given): the TGI in assay [1] was determined as 27.8 µM; in assay [2], 25.5 µM; in assay [3], 27.8 µM; in [4] it was 29.1 µM; in assay [5] it was 27.8 µM; in assay [6], 33.3 µM. For the same molecule, the TGI was 27.6 µM in [7], 24 µM in assay [8], 29.6 µM in assay [9] and 30.3 µM in assay [10].
`Cc1ccc(CC[P+](=O)CCc2ccc(C)nc2)cn1`: the TGI in [1], in [2], in [3], in [4], in assay [5] and in assay [6] was more than 100 µM in each case. The TGI in assay [7], in [8], in assay [9] and in [10] was more than 100 µM in each case.
For the molecule `COc1cc(-c2cc(=O)c3cc4c(=O)cc(-c5cc(OC)c(OC)c(OC)c5)oc4cc3o2)cc(OC)c1OC`, the TGI in assay [1] was more than 85.1 µM; in assay [2] it was 43.3 µM; in assay [3], more than 100 µM; in assay [4] it was more than 100 µM; in assay [5], more than 100 µM; in assay [6] it was more than 64.5 µM. Moreover, the TGI in assay [7] was more than 67.8 µM; in assay [8], more than 100 µM; in assay [9] it was 59.6 µM; in [10], 23.4 µM.
With `CCCCNC(=S)N/N=C/c1cccc(C)n1`, the TGI in assay [1] was 68 µM; in assay [2], 86.7 µM; in [3] it was more than 100 µM; in assay [4], 48.6 µM; in assay [5], more than 100 µM; in [6], more than 100 µM. For the same molecule, the TGI in assay [7], in assay [8], in [9] and in [10] was more than 100 µM each time.
Turning to `O=C(Oc1cc(=O)c(OC(=O)c2ccccc2)co1)c1ccccc1`, the TGI in [1], in assay [2], in [3], in assay [4], in assay [5] and in assay [6] was more than 100 µM throughout. Moreover, the TGI in assay [7], in assay [8], in assay [9] and in assay [10] was more than 100 µM in each case.
With `S=c1[nH]c2ccc(Br)cc2c(=S)s1`, the TGI in assay [1] is 56.7 µM; in assay [2], 64.8 µM; in assay [3], more than 100 µM; in [4], 95.3 µM; in assay [5] it was more than 100 µM; in assay [6], 63.7 µM. The TGI in assay [7] was 82.6 µM; in assay [8] it was more than 100 µM; in [9] it was more than 100 µM; in [10], 54.8 µM.
With `CCOC(CNCCC(=O)OC)OCC`, the TGI in assay [1], in assay [2], in assay [3], in [4], in assay [5] and in [6] was more than 10 µM in each case. The TGI in assay [7], in [8], in [9] and in [10] was more than 10 µM in each case.
Take `O=c1[nH]cnc2c1ncn2[C@@H]1C[C@@H]1CO`: the TGI in assay [1], in assay [2], in [3], in assay [4], in assay [5] and in assay [6] was more than 100 µM in each case. Moreover, the TGI in assay [7], in [8], in [9] and in assay [10] was more than 100 µM throughout.
Regarding `Nc1nc(Cl)cc(NCC2(CO)CCC(CCc3ccccc3)C2)n1` (stereo not given), the TGI in [1] worked out at 29.9 µM; in [2] it was 33.4 µM; in assay [3], 30.1 µM; in [4], 27.8 µM; in [5] it was 33.3 µM; in assay [6], 33.6 µM. Further, the TGI was 25.1 µM in [7], 51.2 µM in [8], 31.3 µM in [9] and 31.1 µM in assay [10].
`CCc1c[n+]([O-])c(C)cc1[N+](=O)[O-]`: the TGI was 47.3 µM in [1]; more than 100 µM in assay [2]; more than 100 µM in assay [3]; more than 100 µM in assay [4]; 97.3 µM in assay [5]; 80.7 µM in [6]. Moreover, the TGI in assay [7], in [8], in [9] and in assay [10] was more than 100 µM throughout.
With `CC1NC(=O)[C@H](C)N(C)C(=O)[C@@H]2CCCN2C(=O)[C@@H](NC(=O)C(Cc2ccccc2)NC(=O)/C=C/C=C/C=C/C=C/C=C/C(=O)NC2=C(O)CCC2=O)COC(=O)[C@@H]2CCCN2C1=O` (stereo not given in full) (X26-[ξF]SP[NMeA][ξA]P; ester 2-C), the TGI in assay [1], in assay [2], in assay [3], in assay [4], in assay [5] and in [6] was more than 100 µM throughout. Also, the TGI in [7], in assay [8], in assay [9] and in assay [10] was more than 100 µM each time.
